Measured values published in patent US8394967B2, “Antioxidant inflammation modulators: C-17 homologated oleanolic acid derivatives” (Reata Pharmaceuticals, Inc., priority 2008, dated 2013).
Counter-ions that a name gives are not always drawn. Like-named read-outs stand apart in the source and are kept apart here.

Columns and labels:
[1] = tested on: RAW264.7 macrophages; test: Cell viability of RAW264.7 macrophages (WST-1 reagent); assay type: cell-based, mouse; conditions: read-out: RAW264.7 (20 ng/ml IFNγ) WST-1 IC50
Method: (§1) FIGS. 1-4, 6 and 8. Inhibition of NO Production. RAW264.7 macrophages were pre-treated with DMSO or drugs at various concentrations (nM) for 2 hours, then treated with 20 ng/ml IFNγ for 24 hours. NO concentration in media was determined using a Griess reagent system; cell viability was determined using WST-1 reagent.
(§2) Nitric Oxide production and cell viability. RAW264.7 macrophages were pre-treated with DMSO or drugs for 2 hours, then treated with recombinant mouse IFNγ (Sigma) for 24 hours. NO concentration in media was determined using the Griess reagent system (Promega). Cell viability was determined using WST-1 reagent (Roche).

[2] = tested on: NO production in RAW264.7 macrophages; test: Inhibition of NO production in IFNγ-treated RAW264.7 macrophages (Griess reagent); assay type: cell-based, mouse; conditions: then 20 ng/ml IFNγ for 24 hours
Method: as §1, §2

[3] = Mus musculus, RAW264.7, 24 h, cell viability, RAW264.7, 20 ng/ml IFNγ 24 hours, WST-1 reagent
[4] = Mus musculus, RAW264.7, RAW264.7 macrophages pre-treated 2 hours
[5] = cell viability, RAW264.7, 20 ng/ml IFNγ 24 hours, WST-1 reagent
[6] = RAW264.7 macrophages pre-treated 2 hours

Question: Which results are given for CC1(C)CC[C@]2([C@@H](O)CCl)CC[C@]3(C)[C@H](C(=O)C[C@@H]4[C@@]5(C)C=C(C#N)C(=O)C(C)(C)[C@@H]5CC[C@]43C)[C@@H]2C1 (single isomer, unassigned) [Compound 63282]?
Answer: IC50 [1, 3]: > 200 nM; IC50 [2, 4]: ~25 nM

Question: Which results are given for CC1(C)CC[C@]2(C(O)CBr)CC[C@]3(C)[C@H](C(=O)C[C@@H]4[C@@]5(C)C=C(C#N)C(=O)C(C)(C)[C@@H]5CC[C@]43C)[C@@H]2C1 (single isomer, unassigned) [Compound 63283]?
Answer: IC50 [1, 5]: ~200 nM; IC50 [2, 6]: ~20 nM

Question: Which results are given for CC1(C)CC[C@]2(C(O)CBr)CC[C@]3(C)[C@H](C(=O)C[C@@H]4[C@@]5(C)C=C(C#N)C(=O)C(C)(C)[C@@H]5CC[C@]43C)[C@@H]2C1 (single isomer, unassigned) [Compound 63284]?
Answer: IC50 [1, 5]: ~200 nM; IC50 [2, 6]: ~15 nM

Question: How did the IC50 [1, 5] turn out when CC1(C)CC[C@]2(C3CO3)CC[C@]3(C)[C@H](C(=O)C[C@@H]4[C@@]5(C)C=C(C#N)C(=O)C(C)(C)[C@@H]5CC[C@]43C)[C@@H]2C1 (single isomer, unassigned) [Compound 63286] was run?
Answer: Its IC50 is over 200 nM.

Question: And the IC50 [2, 6]?
Answer: The IC50 was about 13 nM.

Question: For CC1(C)CC[C@]2(CN)CC[C@]3(C)[C@H](C(=O)CC4[C@@]5(C)C=C(C#N)C(=O)C(C)(C)C5CC[C@]43C)[C@@H]2C1 (stereo partly drawn) [63214 salt, (6aR,6bR,8aS,12aS,12bR,14bR)-8a-(aminomethyl)-4,4,6a,6b,11,11,14b-heptamethyl-3,13-dioxo-3,4,4a,5,6,6a,6b,7,8,8a,9,10,11,12,12a,12b,13,14,14a,14b-icosahydropicene-2-carbonitrile, trifluoroacetic acid salt], which IC50 [1, 3] is on record?
Answer: The IC50 was over 200 nM.

Question: What about the IC50 [2, 4] of the same molecule?
Answer: Its IC50 is about 30 nM.

Question: Which IC50 [1, 3] does the source give for COC(=O)C[C@]12CCC(C)(C)C[C@H]1[C@H]1C(=O)C=C3[C@@]4(C)C=C(C#N)C(=O)C(C)(C)[C@@H]4CC[C@@]3(C)[C@]1(C)CC2 [Compound 402-50, methyl-2-((4aR,6aR,6bS,8aR,12aS,14aR,14bS)-11-cyano-2,2,6a,6b,9,9,12a-heptamethyl-10,14-dioxo-1,2,3,4,4a,5,6,6a,6b,7,8,8a,9,10,12a,14,14a,14b-octadecahydropicen-4a-yl)acetate] here?
Answer: The IC50 was 75 nM.

Question: What about the IC50 [2, 4] of the same molecule?
Answer: The IC50 was about 2.5 nM.

Question: What does the source list for CC1(C)CC[C@]2(CC(=O)O)CC[C@]3(C)[C@H](C(=O)C=C4[C@@]5(C)C=C(C#N)C(=O)C(C)(C)[C@@H]5CC[C@]43C)[C@@H]2C1 [Compound 402-54, 2-((4aR,6aR,6bS,8aR,12aS,14aR,14bS)-11-cyano-2,2,6a,6b,9,9,12a-heptamethyl-10,14-dioxo-1,2,3,4,4a,5,6,6a,6b,7,8,8a,9,10,12a,14,14a,14b-octadecahydropicen-4a-yl)acetic acid]?
Answer: IC50 [1, 3]: > 200 nM; IC50 [2, 4]: ~6 nM

Question: Which results are given for CC1(C)CC[C@]2(CO)CC[C@]3(C)[C@H](C(=O)CC4[C@@]5(C)C=C(C#N)C(=O)C(C)(C)[C@@H]5CC[C@]43C)[C@@H]2C1 (stereo partly drawn) [Compound 402-63, (4aR,6aR,6bR,8aS,12aS,12bR,14bR)-8a-(hydroxymethyl)-4,4,6a,6b,11,11,14b-heptamethyl-3,13-dioxo-3,4,4a,5,6,6a,6b,7,8,8a,9,10,11,12,12a,12b,13,14,14a,14b-icosahydropicene-2-carbonitrile]?
Answer: IC50 [1, 3]: > 200 nM; IC50 [2, 4]: ~9 nM

Question: For CC(=O)OC[C@]12CCC(C)(C)C(C#N)[C@H]1[C@H]1C(=O)CC3[C@@]4(C)C=CC(=O)C(C)(C)[C@@H]4CC[C@@]3(C)[C@]1(C)CC2 (stereo partly drawn) [Compound 402-65, ((4aS,6aR,6bR,8aR,12aR,14aR,14bS)-1-cyano-2,2,6a,6b,9,9,12a-heptamethyl-10,14-dioxo-1,2,3,4,4a,5,6,6a,6b,7,8,8a,9,10,12a,12b,13,14,14a,14b-icosahydropicen-4a-yl)methyl acetate], which IC50 [1, 3] is on record?
Answer: Its IC50 is over 200 nM.

Question: And the IC50 [2, 4]?
Answer: The IC50 was about 12.5 nM.

Question: C=C[C@]12CCC(C)(C)C[C@H]1[C@H]1C(=O)CC3[C@@]4(C)C=C(C#N)C(=O)C(C)(C)C4CC[C@@]3(C)[C@]1(C)CC2 (stereo partly drawn) [Compound 63213, (6aR,6bR,8aR,12aS,12bR,14bR)-4,4,6a,6b,11,11,14b-heptamethyl-3,13-dioxo-8a-vinyl-3,4,4a,5,6,6a,6b,7,8,8a,9,10,11,12,12a,12b,13,14,14a,14b-icosahydropicene-2-carbonitrile] was tested. Which IC50 [1, 3] did it give?
Answer: The IC50 was about 200 nM.

Question: What about the IC50 [2, 4] of the same molecule?
Answer: Its IC50 is about 40 nM.

Question: How did the IC50 ([1]; Mus musculus, RAW264.7, 24 h) turn out when Cn1nnc(CNC[C@]23CCC(C)(C)C[C@H]2[C@H]2C(=O)C[C@@H]4[C@@]5(C)C=C(C#N)C(=O)C(C)(C)[C@@H]5CC[C@@]4(C)[C@]2(C)CC3)n1 [Compound 63233, (4aR,6aR,6bR,8aS,12aS,12bR,14aR,14bR)-4,4,6a,6b,11,11,14b-heptamethyl-8a-(((2-methyl-2H-tetrazol-5-yl)methylamino)methyl)-3,13-dioxo-3,4,4a,5,6,6a,6b,7,8,8a,9,10,11,12,12a,12b,13,14,14a,14b-icosahydropicene-2-carbonitrile] was run?
Answer: The IC50 was over 200 nM.

Question: With CC1(C)CC[C@]2(CSc3ccccc3)CC[C@]3(C)[C@H](C(=O)C[C@@H]4[C@@]5(C)C=C(C#N)C(=O)C(C)(C)[C@@H]5CC[C@]43C)[C@@H]2C1 [Compound 63235, (4aR,6aR,6bR,8aS,12aS,12bR,14aR,14bR)-4,4,6a,6b,11,11,14b-heptamethyl-3,13-dioxo-8a-(phenylthiomethyl)-3,4,4a,5,6,6a,6b,7,8,8a,9,10,11,12,12a,12b,13,14,14a,14b-icosahydropicene-2-carbonitrile] as the molecule, how does the IC50 [1, 3] read?
Answer: Its IC50 is about 150 nM.

Question: What about the IC50 [2, 4] of the same molecule?
Answer: The IC50 was about 80 nM.

Question: For CCOP(=O)(OCC)OC[C@]12CCC(C)(C)C[C@H]1[C@H]1C(=O)C[C@@H]3[C@@]4(C)C=C(C#N)C(=O)C(C)(C)[C@@H]4CC[C@@]3(C)[C@]1(C)CC2 [Compound 63239, ((4aS,6aR,6bR,8aR,12aR,12bR,14aR,14bS)-11-cyano-2,2,6a,6b,9,9,12a-heptamethyl-10,14-dioxo-1,2,3,4,4a,5,6,6a,6b,7,8,8a,9,10,12a,12b,13,14,14a,14b-icosahydropicen-4a-yl)methyl diethyl phosphate], which IC50 ([1]; Mus musculus, RAW264.7, 24 h) is on record?
Answer: The IC50 was over 200 nM.

Question: Which IC50 [1, 3] does the source give for CC1(C)CC[C@]2(C[S+]([O-])c3ccccc3)CC[C@]3(C)[C@H](C(=O)C[C@@H]4[C@@]5(C)C=C(C#N)C(=O)C(C)(C)[C@@H]5CC[C@]43C)[C@@H]2C1 (stereo partly drawn) [Compound 63255, (4aR,6aR,6bR,8aS,12aS,12bR,14aR,14bR)-4,4,6a,6b,11,11,14b-heptamethyl-3,13-dioxo-8a-(phenylsulfinylmethyl)-3,4,4a,5,6,6a,6b,7,8,8a,9,10,11,12,12a,12b,13,14,14a,14b-icosahydropicene-2-carbonitrile] here?
Answer: Its IC50 is over 200 nM.

Question: And the IC50 [2, 4]?
Answer: Its IC50 is about 50 nM.

Question: Which results are given for CC1(C)CC[C@]2(CS(=O)(=O)c3ccccc3)CC[C@]3(C)[C@H](C(=O)C[C@@H]4[C@@]5(C)C=C(C#N)C(=O)C(C)(C)[C@@H]5CC[C@]43C)[C@@H]2C1 [Compound 63266, (4aR,6aR,6bR,8aS,12aS,12bR,14aR,14bR)-4,4,6a,6b,11,11,14b-heptamethyl-3,13-dioxo-8a-(phenylsulfonylmethyl)-3,4,4a,5,6,6a,6b,7,8,8a,9,10,11,12,12a,12b,13,14,14a,14b-icosahydropicene-2-carbonitrile]?
Answer: IC50 [1, 3]: > 200 nM; IC50 [2, 4]: ~30 nM

Question: CC1(C)CC[C@]2(CC(=O)O)CC[C@]3(C)[C@H](C(=O)C[C@@H]4[C@@]5(C)C=C(C#N)C(=O)C(C)(C)[C@@H]5CC[C@]43C)[C@@H]2C1 [Compound 63332, 2-((4aR,6aR,6bR,8aR,12aR,12bR,14aR,14bS)-11-cyano-2,2,6a,6b,9,9,12a-heptamethyl-10,14-dioxo-1,2,3,4,4a,5,6,6a,6b,7,8,8a,9,10,12a,12b,13,14,14a,14b-icosahydropicen-4a-yl)acetic acid] was tested. Which IC50 [2, 4] did it give?
Answer: The IC50 was about 50 nM.
